Drawing on patent EP0589484A1, “1,2-Ethanediol derivative and salt thereof, process for producing the same, and cerebral function-improving agent comprising the same” (TOYAMA CHEMICAL CO., LTD., priority 1989, dated 1990), this text covers Acute toxicity and response vs control in vivo for 50 molecules.

Each structure is given as a SMILES string. Structures can show the parent of a compound that is named as a salt. Where two headings read alike, the source gives them in different places.

One data set deals with ddY male mice. Kind of data set: Acute toxicity. The following applies: 50 mg/kg intravenously, group of 3 ddY male mice. Type of data set: in vivo, mouse. The source says:
A test compound dissolved in physiological saline was intravenously administered to a group of 3 ddY male mice (5-6 weeks old) to examine the acute toxicity of the test compound.

The next data set relates to ddY female mouse. Kind of data set: Effect of test compound on hypoxia (antihypoxic activity). Type of data set: in vivo. The following applies: po, read-out: Antihypoxic activity (%). On the procedure: A test compound dissolved in physiological saline (100 mg/kg) was orally administered to a ddY female mouse (5-6 weeks old, each group consisting of 10 mice). After 1 (or 30 minutes*) hour from the administration, each mouse was placed in a 300-ml glass chamber, and a gas mixture consisting of 4% of oxygen and 96% of nitrogen was passed through the chamber at a rate of 5 liters/min. A time from the start of gas passing to the death of each mouse was measured.
To a control mice group was orally administered only physiological saline.
The antihypoxic activity of the test compound was calculated from the following formula: [formula]

Setting [1] is: 100 mg/kg orally, placed in chamber (4% oxygen, 96% nitrogen) after 1 hour from the administration, survival time relative to control.
Where [2] appears, read: 0.5 h, 100 mg/kg orally, placed in chamber (4% oxygen, 96% nitrogen) after 30 minutes from the administration (values marked *), survival time relative to control.

Consider `CN(C)CCOCC(O)c1cccc(F)c1.Cl` (stereo not drawn) [Compound No. 1, 2-[2-(N,N-dimethylamino)ethoxy]-1-(3-fluorophenyl)ethanol hydrochloride], for which the Acute toxicity entry in the data set with ddY male mice was “no death case”. For the same molecule, the response vs control in vivo at 100 mg/kg with ddY female mouse (1 h) came out at 155%.
For the molecule `CN(C)CCOCC(O)c1cccc(C(F)(F)F)c1.Cl` (stereo not drawn) [Compound No. 42, 2-[2-(N,N-dimethylamino)ethoxy]-1-(3-trifluoromethylphenyl)ethanol hydrochloride], the Acute toxicity entry with ddY male mice is recorded as “no death case”. Besides, the response vs control in vivo at 100 mg/kg in the data set with ddY female mouse (1 h) was found to be 194%.
With `CN(C)CCOCC(O)c1ccc(O)cc1.Cl` (stereo not drawn) [Compound No. 170, 1-(4-hydroxyphenyl)-2-[2-(N,N-dimethylamino)ethoxy]ethanol hydrochloride], in the data set on ddY male mice, the Acute toxicity result is “no death case”.
Take `CN(C)CCOCC(O)c1ccccc1` (stereo not drawn) [compound 2]: in the data set on ddY male mice, the Acute toxicity entry is listed as “no death case”. Moreover, the response vs control in vivo at 100 mg/kg with ddY female mouse (setting [1]) turned out to be 119%.
For the molecule `CN(C)CCOC[C@H](O)c1ccccc1` [compound 3], in the data set on ddY male mice, the Acute toxicity result was “no death case”. In the data set on ddY female mouse (setting [2]), the response vs control in vivo at 100 mg/kg is 245%.
On to `OC(COCCN1CCOCC1)c1ccccc1` (stereo not drawn) [compound 8], for which, in the data set on ddY male mice, the Acute toxicity result is given as “no death case”.
Regarding `O=C1CCCN1CCOCC(O)c1ccccc1` (stereo not drawn) [compound 9], in the data set with ddY male mice, the Acute toxicity entry is given as “no death case”. Also, the response vs control in vivo at 100 mg/kg with ddY female mouse (setting [1]) came to 113%.
As for `Cc1cccc(C(O)COCCN(C)C)c1.Cl` (stereo not drawn) [compound 15, 2-[2-(N,N-dimethylamino)ethoxy]-1-(3-methylphenyl)ethanol hydrochloride], the Acute toxicity entry with ddY male mice is “no death case”. Moreover, in the data set with ddY female mouse (0.5 h), the response vs control in vivo at 100 mg/kg was 194%.
Regarding `Cc1ccc(C(O)COCCN(C)C)cc1` (stereo not drawn) [compound 16], the Acute toxicity entry in the data set on ddY male mice is given as “no death case”. In addition, the response vs control in vivo at 100 mg/kg in the data set on ddY female mouse (setting [1]) came out at 116%.
As for `Cc1cccc(C(O)COCCN2CCCC2=O)c1` (stereo not drawn) [compound 25], the Acute toxicity entry in the data set on ddY male mice was “no death case”.
For `CN(C)CCOCC(O)c1ccc(Cl)cc1` (stereo not drawn) [compound 33], in the data set with ddY male mice, the Acute toxicity entry is on record as “no death case”. The response vs control in vivo at 100 mg/kg in the data set with ddY female mouse (setting [2]) came to 224%.
As for `COc1ccc(C(O)COCCN(C)C)cc1` (stereo not drawn) [compound 44], the Acute toxicity entry with ddY male mice is “no death case”.
As for `CSc1ccc(C(O)COCCN(C)C)cc1` (stereo not drawn) [compound 46], the Acute toxicity entry in the data set with ddY male mice is “no death case”. The response vs control in vivo at 100 mg/kg in the data set on ddY female mouse (setting [2]) was determined as 150%.
On to `CN(C)CCOCC(O)c1ccc2c(c1)OCO2` (stereo not drawn) [compound 52], for which the Acute toxicity entry in the data set on ddY male mice is given as “no death case”.
Still for that read-out and setting: with `CN(C)CCOCC(O)c1cccc(Oc2ccccc2)c1` (stereo not drawn) [compound 53] the entry was “no death case”.
In the case of `Cn1cnc(COCC(O)c2ccccc2)c1` (stereo not drawn) [compound 119], in the data set with ddY male mice, the Acute toxicity result is “no death case”. The response vs control in vivo at 100 mg/kg with ddY female mouse (setting [2]) was 175%.
The corresponding values for `OC(COCc1cccnc1)c1ccccc1` (stereo not drawn) [compound 120] are “no death case” and 162%.
The corresponding values for `OC(COCc1cccnc1)c1cccc(Cl)c1` (stereo not drawn) [compound 126] are “no death case” and 172%.
The like results for `OC(COCc1c[nH]cn1)c1ccccc1` (stereo not drawn) [compound 132] were, in that order, “no death case” and 133%.
On to `OC(COCC1CN(Cc2ccccc2)CCO1)c1ccc(Oc2ccccc2)cc1` (stereo not drawn) [compound 147], for which, in the data set on ddY male mice, the Acute toxicity entry was “no death case”.
For the molecule `OC(COCC1CNCCO1)c1ccccc1` (stereo not drawn) [compound 151, 1-phenyl-2-[(morpholin-2-yl)methoxy]ethanol], the Acute toxicity entry in the data set on ddY male mice is recorded as “no death case”. Also, the response vs control in vivo at 100 mg/kg with ddY female mouse (setting [1]) was determined as 182%.
On to `OCC1CCCN1CCOCC(O)c1ccccc1` (stereo not drawn) [compound 159], for which, in the data set on ddY male mice, the Acute toxicity entry is “no death case”.
On the same count and under the same terms, with `CN(CCOCC(O)c1ccccc1)C(=O)C1CCC(=O)N1` (stereo not drawn) [compound 160] the entry was “no death case”.
Turning to `Cc1cccc(C(O)COCCC2CCNCC2)c1` (stereo not drawn) [compound 176], the Acute toxicity result in the data set with ddY male mice is on record as “no death case”.
Still for that read-out and setting: with `CC(=O)OC(COCCN1CCOCC1)c1cccc(C)c1` (stereo not drawn) [compound 178, 1-acetoxy-1-(3-methylphenyl)-2-[2-(morpholin-4-yl)ethoxy]ethane] the entry was “no death case”; with `CN(C)CCOCC(O)c1ccc2c(c1)OCCO2` (stereo not drawn) [compound 194], “no death case”.
As for `OC(COCCNC1CC1)c1ccccc1` (stereo not drawn) [compound 209], the Acute toxicity entry in the data set with ddY male mice is given as “no death case”. Moreover, in the data set on ddY female mouse (setting [2]), the response vs control in vivo at 100 mg/kg turned out to be 148%.
The like results for `O[C@@H](COC[C@@H]1CNCCO1)c1ccccc1` [compound 219, (1R,2'S)-1-phenyl-2-[(morpholin-2-yl)methoxy]ethanol maleate] were, in that order, “no death case” and 222%.
The corresponding values for `O[C@H](COC[C@H]1CNCCO1)c1ccccc1` [compound 220, (1S,2'R)-1-phenyl-2-[(morpholin-2-yl)methoxy]ethanol maleate] are “no death case” and 183%.
The corresponding values for `O[C@@H](COC[C@H]1CNCCO1)c1ccccc1` [compound 221, (1R,2'R)-1-phenyl-2-[(morpholin-2-yl)methoxy]ethanol oxalate] are “no death case” and 183%.
As for `CN(C)CCOCC(O)c1ccc2ccccc2c1.Cl` (stereo not drawn) [compound 229, 2-[2-(N,N-dimethylamino)ethoxy]-1-(2-naphthyl)ethanol hydrochloride], the Acute toxicity entry in the data set with ddY male mice is “no death case”. Also, in the data set with ddY female mouse (1 h), the response vs control in vivo at 100 mg/kg was 123%.
In the case of `Cc1ccc2cc(C(O)COCCN(C)C)ccc2c1` (stereo not drawn) [compound 235], the Acute toxicity result in the data set with ddY male mice is “no death case”.
Take `COc1ccc2cc(C(O)COCCN(C)C)ccc2c1` (stereo not drawn) [compound 236]: the Acute toxicity result in the data set with ddY male mice is recorded as “no death case”. Moreover, in the data set with ddY female mouse (setting [1]), the response vs control in vivo at 100 mg/kg worked out at 177%.
For `CN(C)CCOCC(O)c1ccc2c(c1)CCCC2` (stereo not drawn) [compound 251], in the data set with ddY male mice, the Acute toxicity result was “no death case”. Further, in the data set with ddY female mouse (setting [2]), the response vs control in vivo at 100 mg/kg came to 186%.
Regarding `OC(COCC1CNCCO1)c1ccc2ccccc2c1` (stereo not drawn) [compound 256, 1-(2-naphthyl)-2-[(morpholin-2-yl)methoxy]ethanol 1/2 fumarate], in the data set with ddY male mice, the Acute toxicity result is listed as “no death case”. Besides, in the data set on ddY female mouse (setting [1]), the response vs control in vivo at 100 mg/kg turned out to be 154%.
The corresponding values for `OC(COCc1cnc[nH]1)c1cccc2ccccc12` (stereo not drawn) [compound 279] are “no death case” and 198%.
For the molecule `Cn1cncc1COCC(O)c1cccc2ccccc12` (stereo not drawn) [compound 283, 2-(1-methylimidazol-5-yl)methoxy-1-(1-naphthyl)ethanol], the Acute toxicity entry in the data set on ddY male mice was “no death case”. In addition, the response vs control in vivo at 100 mg/kg in the data set on ddY female mouse (setting [1]) was 183%.
Consider `CN(C)CCOCC(O)c1ccc2sccc2c1.Cl` (stereo not drawn) [compound 312, 1-(benzo[b]thiophen-5-yl)-2-[2-(N,N-dimethylamino)ethoxy]ethanol hydrochloride], for which the Acute toxicity entry in the data set on ddY male mice is recorded as “no death case”. In addition, in the data set on ddY female mouse (0.5 h), the response vs control in vivo at 100 mg/kg amounted to 221%.
As to `CN(C)CCOCC(O)c1cccs1` (stereo not drawn) [compound 313], the Acute toxicity entry in the data set on ddY male mice is recorded as “no death case”. The response vs control in vivo at 100 mg/kg in the data set on ddY female mouse (setting [2]) was found to be 154%.
Regarding `CN(C)CCOCC(O)c1cccnc1` (stereo not drawn) [compound 315], the Acute toxicity result with ddY male mice is “no death case”.
Same read-out and setting: for `CN(C)CCOCC(O)c1ccoc1` (stereo not drawn) [compound 316] the value was “no death case”.
Turning to `CN(C)CCOCC(O)c1ccc2occc2c1` (stereo not drawn) [compound 325], the Acute toxicity entry with ddY male mice is reported as “no death case”. In addition, the response vs control in vivo at 100 mg/kg in the data set with ddY female mouse (setting [2]) turned out to be 217%.
The like results for `OC(COCCN1CCOCC1)c1ccc2sccc2c1` (stereo not drawn) [compound 327] were, in that order, “no death case” and 160%.
The like results for `CN(C)CCCCOCC(O)c1ccc2sccc2c1` (stereo not drawn) [compound 337] were, in that order, “no death case” and 309%.
For the molecule `Cl.O=C(NCCOCC(O)c1ccc2sccc2c1)c1cccnc1` (stereo not drawn) [compound 360, 1-(benzo[b]thiophen-5-yl)-2-[2-(nicotinoylamino)ethoxy]ethanol hydrochloride], the Acute toxicity result with ddY male mice is reported as “no death case”.
As to `CN(C)CCOCC(O)c1ccc(Cl)s1` (stereo not drawn) [compound 368], in the data set with ddY male mice, the Acute toxicity result was “no death case”. For the same molecule, the response vs control in vivo at 100 mg/kg in the data set on ddY female mouse (setting [2]) amounted to 135%.
For `NCCOCC(O)c1ccc2occc2c1` (stereo not drawn) [compound 369], the Acute toxicity result in the data set with ddY male mice was “no death case”. Further, the response vs control in vivo at 100 mg/kg in the data set on ddY female mouse (setting [2]) came out at 143%.
The corresponding values for `CNCCOCC(O)c1cc2ccccc2s1` (stereo not drawn) [compound 375] are “no death case” and 156%.
The like results for `Cc1ccc2sc(C(O)COCCN(C)C)cc2c1` (stereo not drawn) [compound 385] were, in that order, “no death case” and 161%.
The corresponding values for `CN(C)CCCOCC(O)c1ccc2occc2c1` (stereo not drawn) [compound 390] are “no death case” and 248%.
